Key:
[1] = bracketed value; cited from earlier work
[2] = test system: E. coli cells; test: Lysis of suspended bacterial cells by lysis buffers with 0.1 to 1% SDS; type: cell-based; settings: lysis buffer with 1% OT-100, 0.2M NaOH
Experimental: 0.25 grams of pelleted E. coli cells (the cells contained an 8.165 kB plasmid called VR1412) were suspended in the suspension buffer from a Concert Plasmid DNA Purification Kit (Life Technologies, Inc., Bethesda, Md.). In place of the lysis buffer provided in the Concert Plasmid DNA Purification Kit (i.e., 1% SDS in 200 mM NaOH), a series of ten different lysis buffers were evaluated. Each lysis buffer included 1% OT-100 (a hydrophobic surfactant), 0.2M NaOH and from 0.1 to 1% SDS. The lysis buffers were used to lyse the suspended bacterial cells, and the lysed suspension was then neutralized with the neutralization buffer provided in the Concert Plasmid DNA Purification Kit. The resulting plasmid DNA preparation was precipitated by the addition of isopropanol (IPA) followed by centrifugation.
The best result was obtained with 1% OT-100 and 0.4% SDS, that combined a relatively low endotoxin (LAL) level and a high plasmid concentration.

[3] = in water; cited from earlier work

Compound: Triton ® X-100
- Dynamic Surface Tension [6 bubbles/sec] [1]: — (42.2) dynes/cm

Compound: CCCCCCCCCCCCOS(=O)(=O)[O-].[Na+] [SDS, Sodium dodecyl sulfate]
- minimum concentration of SDS required to achieve most effective bacterial lysis [2]: 0.4%

Compound: CCCCCCCCCCCCCOC(=O)CC(C(=O)OCCCCCCCCCCCCC)S(=O)(=O)O.[Na] (stereo not drawn) [TR-70, sodium bistridecyl sulfosuccinate]
- Solubility [3]: 0.15%
